# Source: paper PMC6487500 (Molecular imaging and biology : MIB : the official …, 2019)
# Assays:
# [1] = tested on: BT474 xenografts; assay: Tissue distribution in mice bearing BT474 xenografts; assay type: in vivo, mouse; conditions: BT474 xenograft mice, n = 5
# [2] = tested on: BT474 cells; assay: Cell binding assay and specific binding; parameters: species or system human; conditions: at 60 min
# [3] = 100 ± 20 μCi i.v., after PET/CT at 1 h
structure (smiles),measurement,setting,value
[68Ga+3].[Cl-].[Cl-].[Cl-] [[^68Ga]GaCl3],"tissue distribution, contralateral muscle",[1]; [3],1.2 ± 0.4 %ID/g
same,"tissue distribution, liver",[1]; [3],4.3 ± 1.3 %ID/g
same,"tissue distribution, tumor uptake",[1]; [3],2.2 ± 1.7 %ID/g
same,"tissue distribution, lungs","[1]; 100 ± 20 μCi i.v., at 1 h",4.2 ± 2.6 %ID/g
same,"T/M ratio, tissue distribution","[1]; non-blocked, after PET/CT at 1 h",1.7 ± 0.8
same,specific BT474 cell binding,[2],18.8 ± 2.5%
